According to patent US20100074881A1, “MULTIPLE NEBULIZER SYSTEMS” (PARION SCIENCES, Inc., priority 2008, published 2010):

Key:
airways = details: concurrent use of hypertonic saline and amiloride; cited from earlier work
[1] = Solubility of PS552-02 in NaCl solutions; assay type: physicochemical
Description: (§1) A specific example of an application for the dual-nebulizer technology is illustrated in the following example in which the desired co-delivery of two therapeutic agents that act synergistically is not possible due to the incompatibility of these agents in a single formulation. […] However, due to the poor solubility of PS552-02 in NaCl solutions, these two agents cannot be formulated together. Currently, administration of PS552-02 and hypertonic saline would require two independent nebulizer treatments. However, a dual nebulizer system alleviates this issue by allowing both agents to be simultaneously delivered. Compound PS552-02 is represented by the formula: […]

airway surface = experiment: Airway surface hydration with PS552-02 and hypertonic saline; details: PS552-02 together with hypertonic saline (3-7%)
Description: as §1

SMILES	effect on water permeability of airways (airways)	solubility in NaCl solutions [1]	airway surface hydration (airway surface)
N=C(N)NC(=O)c1nc(Cl)c(N)nc1N [Amiloride, amiloride]	block the water permeability of airways		
N=C(NCCCCc1ccc(OCC(O)CO)cc1)NC(=O)c1nc(Cl)c(N)nc1N (stereo not drawn) [PS552-02]		poor	synergistically enhance
